From patent US20060089387A1, “Stabilized pharmaceutical composition comprising antidiabetic agent” (priority 2004, published 2006)

Columns and labels:
[1] = pKa of free rosiglitazone and free pioglitazone; type: physicochemical
[2] = Solubility (complete dissolution) in solvents; type: physicochemical; settings: in words

Row | pKa1 [1] | pKa2 [1] | water solubility [2] | Structure (SMILES)
1 | 6.8 | 6.1 | poorly water-soluble | CN(CCOc1ccc(CC2SC(=O)NC2=O)cc1)c1ccccn1 (racemic) [free rosiglitazone, (±)5-[4-[2-(N-methyl-N-(2-pyridyl)amino)ethoxy]benzyl]thiazolidine-2,4-dione]
2 | 6.5 | 6.1 | poorly water-soluble | CCc1ccc(CCOc2ccc(CC3SC(=O)NC3=O)cc2)nc1 (racemic) [free pioglitazone, [(±)5-[[2-(5-ethyl-2-pyridinyl)ethoxyl]phenyl]methyl]-thiazolidine-2,4-dione]
